Test results: patent publication US20030187240A1, “2' -modified oligonucleotides” (ISIS Pharmaceuticals, Inc., priority 1990, published 2003)
Several values for one entry are separate records, joined by “and”; a condition that tells them apart may be missing. Equal values may be shown once. Entries after “also recorded” stand apart in the source; their conditions may differ. Strand notation (5' to 3'): a small letter for the sugar, then the base; units joined by * are phosphorothioate-linked, units joined directly phosphodiester-linked; [ ] holds rarer units or linkages, { } end groups; capitals alone tell only the bases. [OPent] = 2'-O-pentyl nucleotide; [OPr] = 2'-O-propyl nucleotide; d = 2'-deoxy (DNA); m = 2'-O-methyl

Experiments:
[1] = tested on: 25 mer oligoribonucleotide complement; assay: Melting curves of 2′-modified 17-mers with 7-deoxy gap; type: binding; conditions: 17-mer with 7-deoxy gap hybridized with 25 mer oligoribonucleotide complement
Text: This is attributed to these phosphodiester compounds being substrates for nucleases that degrade such phosphodiester compounds thus preventing them potentially activating RNase H. Other sugar modifications: The effects of other 2′ sugar modifications besides 2′-O-methyl on antisense activity in chimeric oligonucleotides have been examined. These modifications are listed in Table 4, along with the Tm values obtained when 17 mer oligonucleotides having 2′-modified nucleotides flanking a 7-base deoxy gap were hybridized with a 25 mer oligoribonucleotide complement as described in Example 25. […] As alkyl length increased, Tm decreased.
Absorbance vs. temperature curves were measured at 260 nm using a Gilford 260 spectrophotometer interfaced to an IBM PC computer and a Gilford Response II spectrophotometer. The buffer contained 100 mM Na^+, 10 mM phosphate and 0.1 mM EDTA, pH 7. Oligonucleotide concentration was 4 μM each strand determined from the absorbance at 85° C. and extinction coefficients calculated according to Puglisi and Tinoco [Methods in Enzymol., 180, 304 (1989). Tm values, free energies of duplex formation and association constants were obtained from fits of data to a two state model with linear sloping baselines. [Petersheim and Turner, Biochemistry, 22, 256 (1983). Reported parameters are averages of at least three experiments. For some oligonucleotides, free energies of duplex formation were also obtained from plots of Tm^−1 vs log10 (concentration). Borer et al., J. Mol. Biol., 86, 843 (1974).

H-ras = assay: ras transactivation reporter gene assay; type: cell-based; conditions: for IC50: antisense activity against H-ras, 17-mer with 7-deoxy gap
Text: The expression plasmid pSV2-oli, containing an activated (codon 12, GGC→GTC) H-ras cDNA insert under control of the constitutive SV40 promoter, was a gift from Dr. Bruno Tocque (Rhone-Poulenc Sante, Vitry, France). This plasmid was used as a template to construct, by PCR, a H-ras expression plasmid under regulation of the steroid-inducible mouse mammary tumor virus (MMTV) promoter. To obtain H-ras coding sequences, the 570 bp coding region of the H-ras gene was amplified by PCR. The PCR primers were designed with unique restriction endonuclease sites in their 5′-regions to facilitate cloning. The PCR product containing the coding region of the H-ras codon 12 mutant oncogene was gel purified, digested, and gel purified once again prior to cloning. This construction was completed by cloning the insert into the expression plasmid pMAMneo (Clontech Laboratories, Calif.).
The ras-responsive reporter gene pRD053 was used to detect ras expression. [Owen et al., Proc. Natl. Acad. Sci. U.S.A., 87, 3866 (1990).

c-raf mRNA = assay: Northern blot analysis of inhibition of c-raf mRNA expression in T24 cells; type: cell-based, human
Text: Chimeric oligonucleotides having SEQ ID NO: 7 were designed using the Genbank c-raf sequence HUMRAFR (Genbank listing x03484), synthesized and tested for inhibition of c-raf mRNA expression in T24 bladder carcinoma cells using a Northern blot assay. These chimeric oligonucleotides have central “gap” regions of 6, 8 or 10 deoxynucleotides flanked by two regions of 2′-O-methyl modified nucleotides, and are shown in Table 10. Backbones were uniformly phosphorothioate. […] These oligonucleotides are preferred.
The human urinary bladder cancer cell line T24 was obtained from the American Type Culture Collection (Rockville, Md.). Cells were grown in McCoy's 5A medium with L-glutamine (GIBCO-BRL, Gaithersburg, Md.), supplemented with 10% heat-inactivated fetal calf serum and 50 U/ml each of penicillin and streptomycin. Cells were seeded on 100 mm plates. When they reached 70% confluency, they were treated with oligonucleotide. Plates were washed with 10 ml prewarmed PBS and 5 ml of OptiMEM reduced-serum medium containing 2.5 μl DOTMA. Oligonucleotide with lipofectin was then added to the desired concentration. After 4 hours of treatment, the medium was replaced with McCoy's medium. Cells were harvested 24 to 72 hours after oligonucleotide treatment and RNA was isolated using a standard CsCl purification method. [Kingston in Current Protocols in Molecular Biology, F. M. Ausubel, R. Brent, R. E. Kingston, D. D. Moore, J. A. Smith, J. G. Seidman and K. Strahl, Eds., John Wiley and Sons, New York.] Total RNA was isolated by centrifugation of cell lysates over a CsCl cushion. RNA samples were electrophoresed through 1.2% agarose-formaldehyde gels and transferred to hybridization membranes by capillary diffusion over a 12-14 hour period. The RNA was cross-linked to the membrane by exposure to UV light in a Stratalinker (Stratagene, La Jolla, Calif.) and hybridized to random-primed ^32P-labeled c-raf cDNA probe (obtained from ATCC) or G3PDH probe as a control. RNA was quantitated using a Phosphorimager (Molecular Dynamics, Sunnyvale, Calif.).

ras mRNA = assay: Northern blot analysis of ras expression in T24 cells; type: cell-based, human; parameters: inhibition of ras expression / decrease of ras mRNA: concentration or dose not given beside the values; conditions: for inhibition of ras expression in T24 cells: result in words
Experimental: (§1) The human urinary bladder cancer cell line T24 was obtained from the American Type Culture Collection (Rockville Md.). Cells were grown in McCoy's 5A medium with L-glutamine (GIBCO-BRL, Gaithersburg, Md.), supplemented with 10% heat-inactivated fetal calf serum and 50 U/ml each of penicillin and streptomycin. Cells were seeded on 100 mm plates. When they reached 70% confluency, they were treated with oligonucleotide. Plates were washed with 10 ml prewarmed PBS and 5 ml of OptiMEM (GIBCO) reduced-serum medium containing 2.5 μl DOTMA. Oligonucleotide was then added to the desired concentration. After 4 hours of treatment, the medium was replaced with McCoy's medium. Cells were harvested 48 hours after oligonucleotide treatment and RNA was isolated using a standard CsCl purification method. [Kingston in Current Protocols in Molecular Biology, F. M. Ausubel, R. Brent, R. E. Kingston, D. D. Moore, J. A. Smith, J. G. Seidman and K. Strahl, Eds., John Wiley and Sons, New York.] The human epithelioid carcinoma cell line HeLa 229 was obtained from the American Type Culture Collection (Bethesda, Md.). HeLa cells were maintained as monolayers on 6-well plates in Dulbecco's Modified Eagle's medium (DMEM) supplemented with 10 fetal bovine serum and 100 U/ml penicillin. Treatment with oligonucleotide and isolation of RNA were essentially as described above for T24 cells.
Northern hybridization: 10 μg of each RNA was electrophoresed on a 1.2% agarose/formaldehyde gel and transferred overnight to GeneBind 45 nylon membrane (Pharmacia LKB, Piscataway, N.J.) using standard methods. [Kingston in Current Protocols in Molecular Biology, F. M. Ausubel, R. Brent, R. E. Kingston, D. D. Moore, J. A. Smith, J. G. Seidman and K. Strahl, Eds., John Wiley and Sons, New York.] RNA was UV-crosslinked to the membrane. Double-stranded ^32P-labeled probes were synthesized using the Prime a Gene labeling kit (Promega, Madison Wis.). The ras probe was a SalI-NheI fragment of a cDNA clone of the activated (mutant) H-ras mRNA having a GGC-to-GTC mutation at codon-12. The control probe was G3PDH. Blots were prehybridized for 15 minutes at 68° C. with the QuickHyb hybridization solution (Stratagene, La Jolla, Calif.). The heat-denatured radioactive probe (2.5×10^6 counts/2 ml hybridization solution) mixed with 100 μl of 10 mg/ml salmon sperm DNA was added and the membrane was hybridized for 1 hour at 68° C. The blots were washed twice for 15 minutes at room temperature in 2×SSC/0.1% SDS and once for 30 minutes at 60° C. with 0.1×SSC/0.1%SDS. Blots were autoradiographed and the intensity of signal was quantitated using an ImageQuant PhosphorImager (Molecular Dynamics, Sunnyvale, Calif.). Northern blots were first hybridized with the ras probe, then stripped by boiling for 15 minutes in 0.1×SSC/0.1%SDS and rehybridized with the control G3PDH probe to check for correct sample loading.

[2] = tested on: ras expression in HeLa cells (wild-type H-ras codon-12); assay: Northern blot analysis of ras expression in HeLa cells; type: cell-based, human
Experimental: as §1, with “The human epithelioid carcinoma cell line HeLa 229 was obtained from the American Type Culture Collection (Bethesda, Md.). HeLa cells were maintained as monolayers on 6-well plates in Dulbecco's Modified Eagle's medium (DMEM) supplemented with 10 fetal bovine serum and 100 U/ml penicillin. Treatment with oligonucleotide and isolation of RNA were essentially as described above for T24 cells.” left out
Northern hybridization: 10 μg of each RNA was electrophoresed on a 1.2% agarose/formaldehyde gel and transferred overnight to GeneBind 45 nylon membrane (Pharmacia LKB, Piscataway, N.J.) using standard methods. […] Blots were autoradiographed and the intensity of signal was quantitated using an ImageQuant PhosphorImager (Molecular Dynamics, Sunnyvale, Calif.). […]

[3] = tested on: codon-12 point mutation of mutant (activated) H-ras RNA; type: cell-based, human
[4] = tested on: T24 cancer cell proliferation; assay: Inhibition of proliferation of cancer cells; type: cell-based, human; conditions: for inhibition of cell proliferation / IC50: T24 cells; for IC50: dose-response study
Experimental: Cells were cultured and treated with oligonucleotide essentially as described in Example 27. Cells were seeded on 60 mm plates and were treated with oligonucleotide in the presence of DOTMA when they reached 70% confluency. Time course experiment: On day 1, cells were treated with a single dose of oligonucleotide at a final concentration of 100 nM. The growth medium was changed once on day 3 and cells were counted every day for 5 days, using a counting chamber. Dose-response experiment: Various concentrations of oligonucleotide (10, 25, 50, 100 or 250 nM) were added to the cells and cells were harvested and counted 3 days later. Oligonucleotides 2570, 3985 and 4690 were tested for effects on T24 cancer cell proliferation.

[5] = tested on: crude HeLa cellular extracts

Substance | IC50 (H-ras) [nM] | inhibition of c-raf mRNA expression (c-raf mRNA) | Tm (° C.) [1] [°C] | inhibition of ras expression in T24 cells (ras mRNA) | other results
C^FC^FA^F C^FA^FCd CdGdAd CdGdGd C^FG^FC^F C^FC^F [Oligonucleotide 4690] | 10 | – | – | – | Tm (° C.) ([1]; listed as 2′-fluoro chimeric oligonucleotide): highest Tm of the series; Tm (° C.) ([1]; listed as Fluoro): 7 °C; antisense activity against H-ras (inhibition of ras expression) (H-ras): most active
7849 (dC*dT*dC*dG*dC*dC*dC*dG*dC*dT*dC*dC*dT*dC*dC*dT*dC*dC*dC*dC) [Oligonucleotide 7849] | – | > 70% | – | – | –
O-Propyl: 17-mer CCACACCGACGGCGCCC with 2′-O-propyl nucleotides flanking a 7-base deoxy gap (sugars from the 5' end [OPr]5 d7 [OPr]5, backbone and methylation of C not given here) | 70 | – | 7 | inhibited | –
6717 (TCCCGCCTGTGACATGCATT; sugars from the 5' end m6 d8 m6, all phosphorothioate, T or U not given here) [Oligonucleotide 6717] | – | greater than 90% | – | – | –
C^MC^MA^M C^MA^MCd CdGdAd CdGdGd C^MG^MC^M C^MC^M [Oligonucleotide 3985] | 20 | – | 7 | inhibited | –
7856 (dT*dT*dC*dT*dC*dG*dC*dC*dC*dG*dC*dT*dC*dC*dT*dC*dC*dT*dC*dC) [Oligonucleotide 7856] | – | > 70% | – | – | –
TCCTCCTCCCCGCGGCGGGT (sugars from the 5' end m11 d9, all phosphorothioate, T or U not given here) [Oligonucleotide 7848] | – | > 70% | – | – | –
T C C G T C AT C G C T C C T C A G G G [Oligonucleotide 2503] | – | – | – | inhibited ras expression in T24 cells | inhibition of ras expression / decrease of ras mRNA (ras mRNA): 71%; inhibition of ras expression in HeLa cells [2]: inhibited ras expression in HeLa cells
7854 (TTCTCCTCCTCCCCTGGCAG; sugars from the 5' end m12 d8, all phosphorothioate, T or U not given here) [Oligonucleotide 7854] | – | > 70% | – | – | –
3985 (CCACACCGACGGCGCCC; 2'-O-methyl wings, phosphorothioate, wing lengths not given here) [Oligonucleotide 3985] | – | – | – | – | inhibition of ras-luciferase activity [3]: greatest inhibition; inhibition of ras expression / decrease of ras mRNA (ras mRNA): 95% and 81%; inhibition of cell proliferation [4]: 82%; IC50 [4]: 61 nM
CdCdAd CdAdCd CdGdAd CdGdGd CdGdCd CdCd [Oligonucleotide 2570, reference compound] | 150 | – | 6 | inhibited ras expression in T24 cells; also recorded: decreased ras mRNA levels in T24 cells | inhibition of ras-luciferase activity [3]: dose-dependent inhibition of ras-luciferase activity; selectivity toward the mutant form of ras-luciferase as compared to the normal form [3]: approximate threefold selectivity; inhibition of ras expression / decrease of ras mRNA (ras mRNA): 82%; inhibition of ras expression in HeLa cells [2]: did not inhibit ras expression in HeLa cells; inhibition of T24 cell proliferation relative to inhibition of HeLa cells ([4]; 100 nM oligonucleotide concentration): four times as severe; inhibition of cell proliferation [4]: 61%; IC50 [4]: 98 nM; degradation in HeLa cell extract [5]: no degradation after 5 hours
O-Pentyl: 17-mer CCACACCGACGGCGCCC with 2′-O-pentyl nucleotides flanking a 7-base deoxy gap (sugars from the 5' end [OPent]5 d7 [OPent]5, backbone and methylation of C not given here) | 150 | – | 6 | – | –
TCCCGCCTGTGACATGCATT (sugars from the 5' end m7 d6 m7, all phosphorothioate, T or U not given here) [Oligonucleotide 6720] | – | greater than 70% | – | – | –
